We go through three molecules from US10258634B2, “Ciclesonide for the treatment of airway disease in horses” (Boehringer Ingelheim Vetmedica GmbH, priority 2012, dated 2019).

The nature of one data set: in vivo. The following applies: horse, concentration of C21-C21-desisobutyrylciclesonide in plasma.
For data set [1], the system named is RAO horses. Put plainly: Budesonide study: moldy hay challenge, lung function variables and clinical score. In kind it is in vivo. The text has this: Nozzle A and a […]® inhaler device not available commercially is used in the study.
For data set [2], the system named is RAO horses. The data set can be described thus: 2nd ciclesonide study: moldy hay challenge, lung function variables and weighted clinical score. The data set is classed as in vivo. Conditions: dexamethasone 0.066 mg/kg per os once daily; after 14 days. The text has this:
(§1) The commercially available […]® is used in the study.

In data set [3] the test system is RAO horses. Put plainly: Segmented neutrophil and lymphocyte counts in the 1st and 2nd ciclesonide studies. The data set is classed as in vivo. The following applies: for lymphocytes count / segmented neutrophil count: after administration of dexamethasone 0.066 mg/kg per os; for Lymphocytes / Segmented neutrophils: dexamethasone 0.066 mg/kg per os once daily 14 days, mean, n=8. As to the method: as §1
The segmented neutrophil counts and the lymphocyte counts are determined in the studies above: ciclesonide treatment versus dexamethasone treatment.
Concentration of segmented neutrophils and lymphocytes on day (D): D0, D14 and D21 in the treatment groups of dexamethasone and different doses of ciclesonide (n=8) (mean (SEM)

Data set [4] deals with RAO horses. The data set can be described thus: 1st ciclesonide study: moldy hay challenge, serum cortisol. In kind it is in vivo. Conditions: dexamethasone 0.066 mg/kg per os once daily; days 3, 5, 7, 10, 14 and 17; p<0.0001.
For data set [5], the system named is RAO horses. Put plainly: 1st ciclesonide study: moldy hay challenge, lung function variables and breathing effort score. The data set is classed as in vivo. Conditions: dexamethasone 0.066 mg/kg per os once daily; after 14 days; p<0.0001.
For data set [6] the following is noted: taken orally; cited from earlier work.
Data set [7] concerns RAO horses. Put plainly: 2nd ciclesonide study: moldy hay challenge, serum cortisol. In kind it is in vivo. Conditions: dexamethasone 0.066 mg/kg per os once daily; days 3, 5, 7, 10, 14 and 17; p<0.0001.
Excerpt: as §1

Consider `C[C@]12C=CC(=O)C=C1CC[C@@H]1[C@@H]2[C@@H](O)C[C@@]2(C)[C@H]1C[C@H]1O[C@@H](C3CCCCC3)O[C@]12C(=O)CO` [C21-C21-desisobutyrylciclesonide], for which the concentration at 4 h in the data set “in vivo” is less than 0.25 nM.
Consider `CCCC1O[C@@H]2C[C@H]3[C@@H]4CCC5=CC(=O)C=C[C@]5(C)[C@H]4[C@@H](O)C[C@]3(C)[C@]2(C(=O)CO)O1` (stereo partly drawn) [budesonide], for which, in the data set with RAO horses [1] (all three budesonide doses (450/900/1800 μg/horse twice daily), after 7 and 14 days, p=0.002 to p<0.0001), the “clinical score (breathing effort score) compared to pretreatment values” is listed as “significantly reduced”. In the data set with RAO horses [1] (budesonide 1800 μg/horse ex RESPIMAT twice daily per inhalation, after 14 days, p≤0.0001), the “all lung function variables (transpulmonary pressure, lung resistance, lung elastance) compared to pretreatment values” is given as “significantly reduced”. Also, in the data set with RAO horses [1] (budesonide 1800 μg/horse ex RESPIMAT twice daily, after 7 or 14 days), the “lung function variables, difference to dexamethasone group” value is on record as “no significant difference”. The “clinical score, difference to dexamethasone group” value in the data set on RAO horses [1] (budesonide 900 and 1800 μg/horse ex RESPIMAT twice daily, after 7 and 14 days) is recorded as “no significant difference”.
With `C[C@@H]1C[C@H]2[C@@H]3CCC4=CC(=O)C=C[C@]4(C)[C@@]3(F)[C@@H](O)C[C@]2(C)[C@@]1(O)C(=O)CO` [dexamethasone], the “all lung function variables (ΔPL, RL, EL) compared to pretreatment values” in the data set on RAO horses [2] and with RAO horses [5] was “significantly reduced” each time. In addition, in the data set with RAO horses [2], the “weighted clinical score compared to pretreatment values” was “significantly reduced”. For the same molecule, the lymphocytes count entry in the data set on RAO horses [3] (1st ciclesonide study) and in the data set on RAO horses [3] (2nd ciclesonide study) was “decreased” throughout. Moreover, the segmented neutrophil count result in the data set with RAO horses [3] (1st ciclesonide study) and with RAO horses [3] (2nd ciclesonide study) was “increased” throughout. Moreover, the neutrophilia and lymphopenia entry in the data set with RAO horses [3] (after treatment with dexamethasone (1st and 2nd ciclesonide study)) was “Neutrophilia and lymphopenia is observed”. Further, the Lymphocytes was 2.1e+09 L⁻¹ in the data set with RAO horses [3] (1st ciclesonide study, D 0); 1.71e+09 L⁻¹ in the data set on RAO horses [3] (1st ciclesonide study, D 14); 1.76e+09 L⁻¹ in the data set with RAO horses [3] (1st ciclesonide study, D 21); 2.14e+09 L⁻¹ in the data set on RAO horses [3] (2nd ciclesonide study, D 0); 1.73e+09 L⁻¹ with RAO horses [3] (2nd ciclesonide study, D 14); 1.73e+09 L⁻¹ with RAO horses [3] (2nd ciclesonide study, D 21). Moreover, the Segmented neutrophils is 4.77e+09 L⁻¹ in the data set with RAO horses [3] (1st ciclesonide study, D 0); 6.16e+09 L⁻¹ with RAO horses [3] (1st ciclesonide study, D 14); 4.27e+09 L⁻¹ with RAO horses [3] (1st ciclesonide study, D 21); 4.82e+09 L⁻¹ in the data set with RAO horses [3] (2nd ciclesonide study, D 0); 6.23e+09 L⁻¹ in the data set on RAO horses [3] (2nd ciclesonide study, D 14); 4.82e+09 L⁻¹ in the data set with RAO horses [3] (2nd ciclesonide study, D 21). In addition, the “clinical score (breathing effort score) compared to pretreatment values” in the data set on RAO horses [1] (dexamethasone 0.066 mg/kg per os once daily, after 7 and 14 days) is recorded as “significantly reduced”. In addition, the “all lung function variables compared to pretreatment values” in the data set with RAO horses [1] (dexamethasone 0.066 mg/kg per os once daily, after 14 days, p≤0.0001) is recorded as “significantly reduced”. Moreover, the “serum cortisol levels compared to pretreatment values” in the data set on RAO horses [4] is on record as “significantly reduced”. Also, the “serum cortisol levels in comparison to any of the ciclesonide treatment groups” value in the data set on RAO horses [4] and with RAO horses [7] was “significantly reduced” throughout. For the same molecule, the “potency relative to prednisone” value in data set [6] was 7 times. For the same molecule, the “potency relative to the naturally occurring hormone cortisol” value in data set [6] was 27 times. Moreover, the serum cortisol levels entry in the data set on RAO horses [7] is reported as “significantly reduced”.
